Reference: paper PMC11125181, “New Inhibitors of Bcr-Abl Based on 2,6,9-Trisubstituted Purine Scaffold Elicit Cytotoxicity in Chronic Myeloid Leukemia-Derived Cell Lines Sensitive and Resistant to TKIs” (Pharmaceutics, 2024)
Read-outs that look alike come from different tables or passages of the source.

How the values were obtained:
[1] = tested on: p-Crkl, p-STAT5, PARP, cyclin A in WT KCL22 cell line; test: Immunoblotting of Bcr-Abl pathway proteins, WT KCL22; format: cell-based, human; conditions: immunoblot, 24 h treatment
Protocol: (§1) Cell lysates were separated on SDS–polyacrylamide gels and electroblotted onto nitrocellulose membranes. After blocking, overnight incubation with specific primary antibodies was performed, followed by wash and incubation with peroxidase-conjugated secondary antibodies (Cell Signalling). Peroxidase activity was detected with SuperSignal West Pico reagents (Thermo Scientific, Waltham, MA, USA) using a CCD camera LAS-4000 (Fujifilm, Tokyo, Japan). The following specific primary antibodies were used: Cell Signalling: anti-STAT5 (#94205), anti-p-STAT5 Y694 (#9351), anti-Crkl (#3182), anti-p-Crkl Y207 (#3181), anti-cyclin A (#4656), anti-p-Bcr Y177 (#3901), and anti-PARP (#9532); Santa Cruz Biotechnology: anti-β-actin (#sc-47778).

[2] = tested on: STAT5 phosphorylation, PARP cleavage in KCL22 F4; test: Immunoblotting of Bcr-Abl pathway proteins, KCL22 F4; format: cell-based, human; conditions: immunoblot, 24 h treatment
Protocol: as §1

[3] = tested on: KBM5, BV173, K562 (Bcr-Abl rearranged cell lines); test: Cytotoxicity across cell lines with Bcr-Abl rearrangement; format: cell-based; conditions: Homo sapiens, read-out: GI50 in Bcr-Abl rearranged cell lines (span over cell lines)
Protocol: (§2) Human cell lines KCL22 and BV173 were obtained from the German Collection of Microorganisms and Cell Cultures, K562 and HEK-293T from the European Collection of Authenticated Cell Cultures. KBM5 cell line was kindly gifted by Vladimír Divoký. Development of KCL22 subclones B8 (T315I, 100%), F4 (E255K, 100%), and B10 (Y253H, 50%) was reported previously. All cell lines were cultivated in humidified incubator at 37 °C and in 5% CO2 according to the provider’s instructions in appropriate media supplemented with 10% fetal bovine serum, penicillin (100 IU/mL), streptomycin (100 µg/mL), and glutamine (4 mM).
(§3) Cytotoxicity was determined using resazurin, an indicator dye to measure oxidation-reduction reactions occurring in the mitochondria of live cells. The cells were seeded into 96-well plates and treated with compounds for 72 h (six different doses of each, in triplicate). After treatment, resazurin (Merck, Darmstadt, Germany) solution was added for 4 h, and the fluorescence of formed resorufin corresponding to live cell quantity was measured at 544 nm/590 nm (excitation/emission) using a Fluoroskan Ascent microplate reader (Labsystems, Vantaa, Finland).

[4] = tested on: KCL22 cells containing Bcr-Abl^WT; test: Cytotoxicity assay (resazurin) on KCL22 WT; format: cell-based, human
[5] = tested on: KCL22 B8 cell line containing Bcr-Abl^T315I; test: Cell cycle flow cytometry, KCL22 B8; format: cell-based, human; conditions: 24 h treatment
Protocol: The cell lines were seeded into 96-well plates and then treated with compounds for 24 h. After treatment, the cells were directly stained by adding 5 × staining solution (17 mM trisodium citrate dihydrate, 0.5% IGEPAL® CA-630, 7.5 mM spermine tetrahydrochloride, 2.5 mM Tris; pH 7.6 containing 50 μg/mL propidium iodide). […] Cell cycle distribution was analyzed using ModFit LT 5.0.9 (Verity Software House, Augusta, ME, USA).

KCL22 B8 (T315I, 100%) = test: Cytotoxicity assay (resazurin) on KCL22 subclone B8; format: cell-based; conditions: Homo sapiens, KCL-22, read-out: GI50 KCL22 B8 T315I (100%), 72 h
Protocol: as §2, §3

HEK-293T = test: Cytotoxicity assay (resazurin) on non-neoplastic HEK-293T; format: cell-based; conditions: Homo sapiens, 72 h, non-neoplastic cells
Protocol: as §2, §3

recombinant Abl1 kinase [6] = molecular target: T1, recombinant Abl1 kinase (Homo sapiens, UniProt P00519); test: Recombinant Abl1 kinase inhibition assay ([γ-33P]ATP, peptide substrate); format: biochemical
T1 construct: made in house
Protocol: The reactions were stopped by adding 5 µL of 3% aq. H3PO4. […] H3PO4, and air-dried.

K562 = test: Cytotoxicity assay (resazurin) on K562; format: cell-based; conditions: Homo sapiens, 72 h
Protocol: as §2, §3

BV173 = test: Cytotoxicity assay (resazurin) on BV173; format: cell-based; conditions: Homo sapiens, BV-173, 72 h
Protocol: as §2, §3

[7] = tested on: STAT5 phosphorylation, PARP cleavage in KCL22 B10; test: Immunoblotting of Bcr-Abl pathway proteins, KCL22 B10; format: cell-based, human; conditions: immunoblot, 24 h treatment
Protocol: as §1

KCL22 F4 (E255K) = test: Cell cycle flow cytometry, KCL22 F4; format: cell-based, human; conditions: 24 h treatment
Protocol: (§4) The cell lines were seeded into 96-well plates and then treated with compounds for 24 h. After treatment, the cells were directly stained by adding 5 × staining solution (17 mM trisodium citrate dihydrate, 0.5% IGEPAL® CA-630, 7.5 mM spermine tetrahydrochloride, 2.5 mM Tris; pH 7.6 containing 50 μg/mL propidium iodide). DNA content was measured by flow cytometry using a 488 nm laser (BD FACS Verse with software BD FACSuite™, version 1.0.6.). Cell cycle distribution was analyzed using ModFit LT 5.0.9 (Verity Software House, Augusta, ME, USA).

KCL22 B10 (Y253H, 50%) = test: Cytotoxicity assay (resazurin) on KCL22 subclone B10; format: cell-based; conditions: Homo sapiens, KCL-22, read-out: GI50 KCL22 B10 Y253H (50%), 72 h
Protocol: as §2, §3

KCL22 WT cells = test: Cell cycle flow cytometry, KCL22 WT; format: cell-based, human; conditions: 24 h treatment, increasing concentration up to 5 µM
Protocol: as §4

KCL22 F4 (E255K, 100%) = test: Cytotoxicity assay (resazurin) on KCL22 subclone F4; format: cell-based; conditions: Homo sapiens, KCL-22, read-out: GI50 KCL22 F4 E255K (100%), 72 h
Protocol: as §2, §3

KBM5 = test: Cytotoxicity assay (resazurin) on KBM5; format: cell-based; conditions: Homo sapiens, KBM5; 72 h, resazurin assay; read-out: GI50 KBM5
KCL22 B10 (Y253H) = test: Cell cycle flow cytometry, KCL22 B10; format: cell-based, human; conditions: 24 h treatment
Protocol: as §4

[8] = tested on: KCL22 models (WT, B8, F4, B10); test: Cytotoxicity across all KCL22 models; format: cell-based; conditions: Homo sapiens, KCL-22, read-out: GI50 in all KCL22 models (span over models)
Protocol: as §2, §3

recombinant Abl1 kinase [9] = molecular target: T1, recombinant Abl1 kinase; conditions: Figure 2A, compounds with longer N-9 substituents; read-out: IC50 Bcr-Abl; cited from earlier work
[10] = Homo sapiens, KCL-22, 72 h, read-out: GI50 KCL22 WT
[11] = from the IC50 of Table S1, read-out: pIC50 (Table S1) (converted)
[12] = recombinant Abl1, 1 µM ATP, at least three independent experiments, read-out: IC50 Abl
[13] = as listed in Table S1, Bcr-Abl WT, read-out: IC50 (Table S1)

T1 sequence (P00519 whole entry): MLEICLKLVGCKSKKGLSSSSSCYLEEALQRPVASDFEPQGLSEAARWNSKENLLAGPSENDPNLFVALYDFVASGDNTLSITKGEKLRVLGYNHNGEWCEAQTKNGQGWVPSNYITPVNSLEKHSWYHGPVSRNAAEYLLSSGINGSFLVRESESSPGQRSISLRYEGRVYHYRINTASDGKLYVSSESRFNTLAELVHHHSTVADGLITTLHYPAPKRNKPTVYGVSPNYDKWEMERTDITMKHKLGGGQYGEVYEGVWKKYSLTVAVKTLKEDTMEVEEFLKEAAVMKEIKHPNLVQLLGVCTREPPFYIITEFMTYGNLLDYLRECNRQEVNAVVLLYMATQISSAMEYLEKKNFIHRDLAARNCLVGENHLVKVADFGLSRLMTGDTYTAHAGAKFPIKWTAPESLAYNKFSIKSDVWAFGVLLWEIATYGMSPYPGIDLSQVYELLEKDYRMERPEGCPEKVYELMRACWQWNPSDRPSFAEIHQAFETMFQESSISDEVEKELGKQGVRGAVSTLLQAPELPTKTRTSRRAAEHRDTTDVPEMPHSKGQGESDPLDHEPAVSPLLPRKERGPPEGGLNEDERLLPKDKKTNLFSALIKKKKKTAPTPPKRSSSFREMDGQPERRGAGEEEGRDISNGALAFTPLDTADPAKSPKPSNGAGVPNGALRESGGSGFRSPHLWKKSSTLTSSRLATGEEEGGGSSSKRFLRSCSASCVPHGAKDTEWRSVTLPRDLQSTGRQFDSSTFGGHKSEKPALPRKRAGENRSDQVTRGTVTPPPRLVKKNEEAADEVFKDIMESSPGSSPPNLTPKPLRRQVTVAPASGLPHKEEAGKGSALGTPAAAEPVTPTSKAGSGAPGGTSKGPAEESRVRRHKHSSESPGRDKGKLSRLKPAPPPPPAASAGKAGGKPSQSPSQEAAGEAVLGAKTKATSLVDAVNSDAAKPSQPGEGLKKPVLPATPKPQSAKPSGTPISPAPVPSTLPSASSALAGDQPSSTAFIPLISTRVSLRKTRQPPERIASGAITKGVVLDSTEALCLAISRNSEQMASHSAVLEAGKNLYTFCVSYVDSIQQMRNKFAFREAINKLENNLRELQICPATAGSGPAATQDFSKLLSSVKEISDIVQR

SMILES	GI50 [4, 10] [µM]	Effect on cell cycle distribution, KCL22 B8 (T315I) [5]	GI50 (KCL22 B8 (T315I, 100%)) [µM]	GI50 (HEK-293T) [µM]	IC50 (recombinant Abl1 kinase [6]; [11]) [µM]	IC50 (recombinant Abl1 kinase [6]; [12]) [µM]	GI50 (K562) [µM]	GI50 (BV173) [µM]	GI50 (KCL22 B10 (Y253H, 50%)) [µM]	GI50 (KCL22 F4 (E255K, 100%)) [µM]	GI50 (KBM5) [µM]	IC50 (recombinant Abl1 kinase [6]; [13]) [µM]	other results
OCCN1CCN(c2ccc(Nc3nc(Nc4cccc(F)c4)c4ncn(CC5CC5)c4n3)cc2)CC1 [Compound 11b, 2-(4-(4-((9-(Cyclopropylmethyl)-6-((3-fluorophenyl)amino)-9H-purin-2-yl)amino)phenyl)piperazin-1-yl)ethan-1-ol]	2 ± 0.4	resistant	11.5 ± 1.1	5.5 ± 0.6	0.014	0.015 ± 0.01	0.7 ± 0.2	1.5 ± 0.2	2.6 ± 0.2	4.1 ± 0.1	1.3 ± 0.1	–	Effect on Bcr-Abl downstream proteins, WT KCL22 [1]: downregulated the levels of p-Crkl and p-STAT5; Effect on Bcr-Abl downstream proteins, KCL22 F4 [2]: significantly pronounced in both mutant cell lines; GI50 [3]: 0.7 to 1.3 µM; Effect on Bcr-Abl downstream proteins, KCL22 B10 [7]: significantly pronounced in both mutant cell lines; Effect on cell cycle distribution, KCL22 F4 (KCL22 F4 (E255K)): arrested F4 and B10 mutant models in G1 phase; Effect on cell cycle distribution, KCL22 WT (KCL22 WT cells): significant block of WT cells in G1 phase; Effect on cell cycle distribution, KCL22 B10 (KCL22 B10 (Y253H)): arrested F4 and B10 mutant models in G1 phase
CC(C)CCn1cnc2c(Nc3cccc(F)c3)nc(Nc3ccc(N4CCN(CCO)CC4)cc3)nc21 [Compound 11e, 2-(4-(4-((6-((3-Fluorophenyl)amino)-9-isopentyl-9H-purin-2-yl)amino)phenyl)piperazin-1-yl)ethan-1-ol]	6.1 ± 0.1	resistant	6.9 ± 0.8	4.7 ± 0.7	0.13	0.131 ± 0.071	4.3 ± 0.2	3.8 ± 0.1	6.9 ± 0.1	5.6 ± 0.5	5 ± 0.1	0.13	GI50 [8]: 5.6 to 6.9 µM
CN1CCN(c2ccc(Nc3nc(NCc4ccccc4)c4ncn(CC5CC5)c4n3)cc2)CC1 [Compound 13c, N^6-benzyl-9-(cyclopropylmethyl)-N^2-(4-(4-methylpiperazin-1-yl)phenyl)-9H-purine-2,6-diamine]	> 20	–	> 20	16.7 ± 1.1	0.839	0.845 ± 0.066	5.7 ± 0.6	11.9 ± 1.4	> 20	> 20	> 20	0.84	melting point: 152 to 154 °C
CC(C)CCn1cnc2c(Nc3ccc(F)c(F)c3)nc(Nc3ccc(N4CCN(C)CC4)cc3)nc21 [IV]	–	–	–	–	–	–	–	–	–	–	–	–	IC50 (recombinant Abl1 kinase [9]): 2.28 µM
Cc1cn(-c2cc(NC(=O)c3ccc(C)c(Nc4nccc(-c5cccnc5)n4)c3)cc(C(F)(F)F)c2)cn1 [Nilotinib, reference compound]	–	no effect	> 20	> 10	–	–	0.025 ± 0.01	0.003	1.4 ± 0.3	0.789 ± 0.081	0.019 ± 0.009	–	GI50 ([4]; 72 h, read-out: GI50 KCL22 WT): 0.047 ± 0.008 µM; GI50 ([4]; read-out: GI50 KCL22 WT, 72 h): 0.019 µM
